Measured values from US12491182B2, “Polymorphs of triazole antifungal compound PC945” (Pulmocide Limited, priority 2019, dated 2025).
Values after ≈ are worked out from the molar mass of the structure shown. Like-named read-outs stand apart in the source and are kept apart here. Marks after values point to notes of the source that are not given here.

How the values were obtained:
[1] = Equilibration of Forms 1 and 2, singularly and as mixtures, in MEK and THF alone and with 5% water; format: physicochemical; conditions: 5-10 °C, both equilibration temperatures
Excerpt: The influence of the initial polymorphic composition on the fate of samples was investigated by equilibration of the either the single polymorphs or an equal mixture of both in anhydrous MEK and THF as well as in the same solvents doped with 5% water.
The results obtained (Table 13) reveal that in anhydrous media the two polymorphs retain their structural integrity, if present singularly (Table 13, Entries 1, 2, 4 and 5). […] (Table 13, Entry 4) which may be attributable to the presence of traces of moisture in a highly hygroscopic solvent.
The results observed when 5% water was admixed to the two solvents indicate that the predominance of the two forms reversed under these conditions, taking kinetic factors into account. In aqueous MEK (5% water) the single polymorphs were again unchanged for the duration of the experiment (Table 13, Entries 7 and 8). In contrast, the binary polymorphic mixture converted into Form 1 in this medium (Table 13, Entry 9). In aqueous THF (5% water) the dominance of Form 1 as the most preferred polymorph was especially evident. In this environment the suspension of Form 1 remained unchanged (Table 13, Entry 10), consistent with the outcome observed for aq MEK under the same conditions.
However, in THF doped with 5% water, both the suspension comprising the binary mixture, as well as that composed of the Form 2 polymorph alone, were transformed into suspensions containing only Form 1 (Table 13, Entries 11 and 12).

[2] = target: T1, Aspergillus fumigatus sterol 14α-demethylase CYP51B (Aspergillus fumigatus, UniProt E9QY26); conditions: cited from earlier work
T1 sequence (E9QY26 1-524): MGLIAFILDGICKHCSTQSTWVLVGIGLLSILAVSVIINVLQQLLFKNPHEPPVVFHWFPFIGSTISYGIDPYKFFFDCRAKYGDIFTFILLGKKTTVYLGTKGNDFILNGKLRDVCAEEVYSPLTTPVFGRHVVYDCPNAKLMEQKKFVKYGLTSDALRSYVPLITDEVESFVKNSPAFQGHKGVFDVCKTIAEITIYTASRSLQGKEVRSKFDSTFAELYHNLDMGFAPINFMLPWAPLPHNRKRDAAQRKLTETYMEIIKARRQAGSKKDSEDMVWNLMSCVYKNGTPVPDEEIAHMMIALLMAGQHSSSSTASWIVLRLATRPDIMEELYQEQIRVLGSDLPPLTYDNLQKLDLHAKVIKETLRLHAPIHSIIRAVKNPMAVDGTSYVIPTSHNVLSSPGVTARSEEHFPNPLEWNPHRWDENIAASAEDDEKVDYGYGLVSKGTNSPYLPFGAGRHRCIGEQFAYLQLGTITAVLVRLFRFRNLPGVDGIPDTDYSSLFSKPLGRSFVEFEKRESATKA

Aspergillus fumigatus [3] = conditions: topical Compound I in combination with a known systemic triazole agent; in vitro human alveolus bilayer model; cited from earlier work
Aspergillus fumigatus [4] = conditions: intranasal dosing, immunocompromised mice, repeat dosing; cited from earlier work
Aspergillus fumigatus [5] = conditions: topical Compound I in combination with a known systemic triazole agent; lungs of neutropenic, immunocompromised mice; cited from earlier work
[6] = Solubility of Compound I in water; format: physicochemical
[7] = target: T2, Aspergillus fumigatus sterol 14α-demethylase CYP51A (Aspergillus fumigatus, UniProt Q4WNT5); conditions: cited from earlier work
T2 sequence (Q4WNT5 1-515): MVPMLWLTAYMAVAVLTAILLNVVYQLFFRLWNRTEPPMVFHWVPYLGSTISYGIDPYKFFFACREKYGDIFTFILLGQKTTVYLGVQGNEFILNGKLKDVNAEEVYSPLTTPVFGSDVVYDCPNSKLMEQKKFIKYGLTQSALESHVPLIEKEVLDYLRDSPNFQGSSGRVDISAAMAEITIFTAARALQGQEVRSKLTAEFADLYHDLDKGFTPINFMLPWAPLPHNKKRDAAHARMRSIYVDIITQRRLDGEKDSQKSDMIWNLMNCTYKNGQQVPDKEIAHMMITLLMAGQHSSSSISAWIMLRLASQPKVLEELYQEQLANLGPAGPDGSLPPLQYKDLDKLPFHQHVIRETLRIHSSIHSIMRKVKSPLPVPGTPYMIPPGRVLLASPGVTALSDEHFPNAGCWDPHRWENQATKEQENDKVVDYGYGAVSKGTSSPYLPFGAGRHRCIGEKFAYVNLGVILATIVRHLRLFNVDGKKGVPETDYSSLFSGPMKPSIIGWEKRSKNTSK

[8] = Solubility of Compound I in MEK/water mixtures; format: physicochemical; conditions: 25 °C, organic solvent or mixture, thermodynamic from solid
Procedure: (Table 12). It was observed that Form 2 integrity was maintained for at least 24 hours at the lower temperature until the water content exceeded 6%, despite an increase in solubility of Compound I from 19 to 30 mg/ml (data not shown).

Candida auris isolates = conditions: isolates collected globally; cited from earlier work
[9] = Maturation of 1:1 suspensions of Forms 1 and 2 at varying temperatures, XRPD analysis; format: physicochemical
Excerpt: It has been determined that the crystalline states, referred to herein as Form 1 and Form 2, constitute an enantiotropic polymorphic pair. This property arises from a temperature dependency of their relative thermodynamic stabilities, whereby one of the polymorphs is the most thermodynamically stable manifestation of the material up to a characteristic (empirically determined) temperature; above which their order of stability is inverted. In the present instance suspensions comprising equal amounts of the two polymorphs were matured, in one of six different solvents, at 50° C., 70° C. and 135° C. (Table 6). In all experiments conducted at both 50° C. and 70° C. the 1:1 mixtures converted into suspensions containing only the Form 2 polymorph. In contrast, all of the mixtures maintained at a temperature of 135° C. were transformed into Form 1.
(§1) X-Ray powder diffraction patterns were collected on a PANalytical diffractometer using Cu Kα radiation (45 kV, 40 mA), θ-θ goniometer, focusing mirror, divergence slit (½″), soller slits at both incident and divergent beam (4 mm) and a PIXcel detector. The software used for data collection was X′Pert Data Collector, version 2.2f and the data was presented using X′Pert Data Viewer, version 1.2d. XRPD patterns were acquired under ambient conditions via a transmission foil sample stage (polyimide—Kapton, 12.7 μm thickness film) under ambient conditions using a PANalytical X′Pert PRO. The data collection range was 2.994-35°2θ with a continuous scan speed of 0.202 s^−1.
A mixture of equal amounts Forms 1 and 2 (100 mg) was charged to crystallisation tubes followed by the selected solvent. The suspensions were heated to the temperatures indicated (Table 6) for 72 hr, during which time samples were taken at 24 hr intervals Solids were isolated at the maturation temperature by filtration and then dried in vacuo at 45° C. for 20 hr. In two cases (Table 6, Entries 1 and 2) suspensions were retained at 135° C. which comprised Form I from the 24 hr time point to the conclusion of the experiment. In the remaining cases (Table 6, Entries 4-6) solutions had formed at 72 hr and solids were recovered by slight cooling, all of which were determined to be Form 1. Those maturated at lower temperatures all gave Form 2 within 24 hr.

[10] = Cross-seeding experiments of Forms 1 and 2 at 5, 25 and 50 °C, XRPD; format: physicochemical; conditions: 96 hr
Excerpt: as §1
A mixture of Forms 1 and 2 (50% w/w) was prepared and a sample of the mixture (20 mg) was then suspended in a solvent system (50 vol, 1.0 mL) and shaken at different temperatures for 96 hr. The solids were filtered, air dried and analysed by XRPD. The results obtained (Table 8) reveal that, in all but one of the systems investigated (Entries 10-12), the mixture of polymorphic forms had turned over into Form 2 when maintained at both RT and 50° C. The transformation in propyl acetate was seen to be especially facile as Form 2 was also isolated from the suspension which had been maintained at 5° C. (Entry 1).

For `[2H]c1c([2H])c(NC(=O)c2ccc(N3CCN(c4ccc(OC[C@@H]5CO[C@@](Cn6cncn6)(c6ccc(F)cc6F)C5)c(C)c4)CC3)cc2)c([2H])c([2H])c1F` [Compound 2, 4-(4-(4-(((3R,5R)-5-((1H-1,2,4-triazol-1-yl)methyl)-5-(2,4-difluorophenyl)tetrahydrofuran-3-yl)methoxy)-3-methylphenyl)piperazin-1-yl)-N-(4-fluorophenyl-2,3,5,6-d4)benzamide, reference compound], the “Form by XRPD Post Equilibration” value ([1]; MEK (anhydrous)) was 2, the “Form by XRPD Post Equilibration” value ([1]; MEK/5% Water) was 2 and the “Form by XRPD Post Equilibration” value ([1]; THF (anhydrous), Form 1 input: some evidence of Form 2 at 10 °C) was 2. For the same compound, the “Form by XRPD Post Equilibration” value ([1]; THF/5% Water) was 1.

In the case of `Cc1cc(N2CCN(c3ccc(C(=O)Nc4ccc(F)cc4)cc3)CC2)ccc1OC[C@@H]1CO[C@@](Cn2cncn2)(c2ccc(F)cc2F)C1` [Compound I, 4-(4-(4-(((3R,5R)-5-((1H-1,2,4-triazol-1-yl)methyl)-5-(2,4-difluorophenyl)tetrahydrofuran-3-yl)methoxy)-3-methylphenyl)piperazin-1-yl)-N-(4-fluorophenyl)benzamide], the “inhibition of sterol 14α-demethylase CYP51B” value [2] is listed as “potent inhibitor”, the “anti-fungal effect of combination” value (Aspergillus fumigatus [3]) is listed as “synergistic anti-fungal effects” and the “anti-fungal effects by biomarker analysis” value (Aspergillus fumigatus [4]) is listed as “accumulated upon repeat dosing and were persistent”. The “anti-fungal effect of combination” value (Aspergillus fumigatus [5]) was “synergistic anti-fungal effects”, the solubility in water [6] was “extremely low solubility” and the “inhibition of sterol 14α-demethylase CYP51A” value [7] was “potent inhibitor”. For the same compound, the solubility ([8]; MEK with 8% water by volume) was 23 mg/mL (≈ 33.7 mM), the solubility ([8]; MEK with water content rising up to 6% by volume, 25 °C (data not shown)) was 19 to 30 mg/mL (≈ 27.8 to 43.9 mM) and the “inhibition of Candida auris isolates, potency compared with azoles” value (Candida auris isolates) was “more potent inhibitor than posaconazole, voriconazole and fluconazole”.

For `Cc1cc(N2CCN(c3ccc(C(=O)Nc4ccc(F)cc4)cc3)CC2)ccc1OC[C@@H]1CO[C@@](Cn2cncn2)(c2ccc(F)cc2F)C1` [Forms 1 and 2], the “Polymorph obtained at temp indicated” value ([9]; decalin, 50 °C, XRPD after 72 hr) was 2, the “Polymorph obtained at temp indicated” value ([9]; decalin, 70 °C, XRPD after 72 hr) was 2 and the “Polymorph obtained at temp indicated” value ([9]; decalin, 135 °C, 72 hr, dissolution occurred, solid obtained on slight cooling) was 1^b. For the same compound, the “Polymorph obtained at temp indicated” value ([9]; diphenyl ether, 50 °C, XRPD after 72 hr) was 2, the “Polymorph obtained at temp indicated” value ([9]; diphenyl ether, 70 °C, XRPD after 72 hr) was 2 and the “Polymorph obtained at temp indicated” value ([9]; diphenyl ether, 135 °C, 72 hr, dissolution occurred, solid obtained on slight cooling) was 1^b. The “enantiotropic transition point (temperature at which stability inverts)” value ([9]; from maturation of 1:1 mixtures at 50, 70 and 135 °C) was 70-135 °C, the “Polymorph obtained at temp indicated” value ([9]; heptanol, 50 °C, XRPD after 72 hr) was 2 and the “Polymorph obtained at temp indicated” value ([9]; heptanol, 70 °C, XRPD after 72 hr) was 2. For the same compound, the “Polymorph obtained at temp indicated” value ([9]; heptanol, 135 °C, 72 hr, dissolution occurred, solid obtained on slight cooling) was 1^b, the “Polymorph obtained at temp indicated” value ([9]; mesitylene, 50 °C, XRPD after 72 hr) was 2 and the “Polymorph obtained at temp indicated” value ([9]; mesitylene, 70 °C, XRPD after 72 hr) was 2. The “Polymorph obtained at temp indicated” value ([9]; mesitylene, 135 °C, XRPD after 72 hr) was 1, the “Polymorph obtained at temp indicated” value ([9]; p-cymene, 50 °C, XRPD after 72 hr) was 2 and the “Polymorph obtained at temp indicated” value ([9]; p-cymene, 70 °C, XRPD after 72 hr) was 2. The “Polymorph obtained at temp indicated” value ([9]; p-cymene, 135 °C, 72 hr, dissolution occurred, solid obtained on slight cooling) was 1^b, the “Polymorph obtained at temp indicated” value ([9]; xylenes, 50 °C, XRPD after 72 hr) was 2 and the “Polymorph obtained at temp indicated” value ([9]; xylenes, 70 °C, XRPD after 72 hr) was 2. For the same compound, the “Polymorph obtained at temp indicated” value ([9]; xylenes, 135 °C, XRPD after 72 hr) was 1, the “Form by XRPD Post Equilibration” value ([1]; MEK (anhydrous), listed as 1 + 2) was 2 and the “Form by XRPD Post Equilibration” value ([1]; MEK/5% Water) was 1. The “Form by XRPD Post Equilibration” value ([1]; THF (anhydrous), Form 1 input: some evidence of Form 2 at 10 °C, listed as 1 + 2) was 2, the “Form by XRPD Post Equilibration” value ([1]; THF/5% Water) was 1 and the “Polymorphic Form by XRPD” value ([10]; PrOAc, 5 °C) was 2. The “Polymorphic Form by XRPD” value ([10]; PrOAc, 25 °C) was 2, the “Polymorphic Form by XRPD” value ([10]; PrOAc, 50 °C) was 2 and the “Polymorphic Form by XRPD” value ([10]; TBME, 25 °C) was 2. The “Polymorphic Form by XRPD” value ([10]; TBME, 50 °C) was 2, the “Polymorphic Form by XRPD” value ([10]; Toluene, 25 °C) was 2 and the “Polymorphic Form by XRPD” value ([10]; Toluene, 50 °C) was 2.
